Measured values from patent publication US20110189174A1, “COMPOSITIONS AND METHODS FOR TREATING, REDUCING, AMELIORATING, ALLEVIATING, OR INHIBITING PROGRESSION OF, PATHOGENIC OCULAR NEOVASCULARIZATION” (priority 2010, published 2011).
“Also recorded” adds a separate entry of the source.

Tests used:
[1] = system: human retinal endothelial cells (HREC); assay: Testing 7: VEGF-induced HREC proliferation (MTS assay), integrin antagonists and Lucentis alone and in combination; format: cell-based
Experimental: HREC were first cultured overnight in a 96-well plate coated with fibronectin. The next day medium containing different agents as shown in Tables 14 and 15 was pre-incubated for 1 hour before being added into appropriate wells. The cells were cultured at 37° C., 5% CO2, and 95% humidity for another 3 days. After that, cell proliferation was estimated by the MTS assay. In the first study we used VEGF 10 ng/mL (about EC80 in study PH08169), Lucentis® 1 ng/mL (about EC25 in study PH09038) and 5 doses of BOL-303055-X. Normal IgG (1 ng/ml) was also added to groups containing no Lucentis®. All groups contained the same amount of 0.1% DMSO. In the second study, all five compounds (BOL-303049-X, BOL-303050-X, BOL-303051-X, BOL-303054-X and BOL-303055-X) were tested at 1 nM with other conditions remaining the same.
A 96-well plate was coated with human fibronectin (10 μg/mL) for 5 hours at 37° C. HREC were washed with HBSS buffer once, tripsinized and re-suspended in 10% FBS CS-C medium at 18,000 cells/mL. Cells (200 μL) were added to the plate and cultured overnight at 37° C., 5% CO2, and 95% humidity. Next day, the cells were serum-starved for 2 hours.
For study I, VEGF at 10 ng/mL, Lucentis® at 1 ng/mL and BOL-303055-X at 0.1, 0.3, 1, 3 and 10 nM were prepared in 1% FBS CS medium as shown in Table 14. Normal IgG (1 ng/mL) were added to groups containing no Lucentis®. All medium solutions were incubated for 1 hour at 37° C. After carefully medium was aspirated, 200 μL of the medium containing different agents were then added into appropriate wells. The cells were cultured for another 3 days. For the study II as shown in the Table 15, five compounds were tested at 1 nM with other conditions remaining the same as study I.
At the end of incubation, the medium was carefully aspirated from cells and 120 μl of MTS working solution was added into all wells including blank wells (without cells). The plates were incubated at 37° C., 5% CO2, and 95% humidity for 1 hour and then read by a plate reader at 490 nm wavelength.
Median optical density (OD) was generated from different groups. Data were expressed as mean±SEM of the OD values. Statistical analysis was performed using three-way ANOVA after Box-Cox transformations, and p<0.05 was considered statistically significant. To evaluate whether the effects of the combinations were either synergistic or additive, net inhibitions were calculated by subtracting the basal levels in the presence of VEGF from the individual treatments (Lucentis® and Integrin blockers) and the combinations. […] Data analysis was performed utilizing the statistical analysis software JMP (SAS Institute, Cary, N.C.).

[2] = system: laser-induced CNV in rats; assay: Laser-induced choroidal neovascularization in rats (CNV area, fluorescein angiography grades); format: in vivo, Brown Norway rats; conditions: day 14, 200 μg/eye (echistatin 5 μg, Avastin 125 μg); for CNV area / development of CNV on isolectin IB4-labeled flat mounts compared to vehicle-treated controls / Mean score of fluorescein leakage (FA score) compared to vehicle-treated controls: one intravitreal injection after laser; for Number of lesions in FA grade 1 / Number of lesions in FA grade 2 / Number of lesions in FA grade 3 / Number of lesions in FA grade 4: unobstructed lesions
Experimental: Fifty six male Brown Norway rats, approximately 200-300 grams of body weight and two months of age, were used in this study. This study was performed in two cohorts and only one eye of each rat was used.
The pupils were dilated and then the rats were anesthetized as described in baseline examination. The rats were positioned in front of a slit lamp system (Haag-Streit USA, Mason, Ohio). […] A diode laser (OcuLight TX, IRIDEX, Mountain View, Calif.) was used for photocoagulation (532 nm wavelength, 120 mW power, 50 μm spot size and 0.05 seconds duration). For each right eye, a series of six photocoagulation sites were concentrically placed between the major retinal vessels at equal distance (about two optic discs) around the optic nerve head. […] If a significant retinal or subretinal hemorrhage occurred during the laser photocoagulation, then the left eye was be photocoagulated and used as the experimental eye.
Grade 1 lesions had no hyperfluorescence.
The eyes were collected on day 14 and immediately fixed in 4% paraformaldehyde in PBS (pH 7.4) for one and half hours, and then transferred into cold PBS and kept at 4° C. for further processing.
The incubation was performed in a humidified dark chamber with gentle rotation at 4° C. overnight. On the second day, the retinal pigment epithelium (RPE)-choroidsclera complexes were washed with cold IHC buffer, mounted with ProLong® Gold antifade reagent, covered with circular cover glass, and sealed with clear nail polish. Fluorescent images were collected with a confocal microscope (FluoView FV 1000 confocal microscope, Olympus, Center Valley, Pa.) and a 4×, 0.16 numerical aperture objective lens. […] The laser sites were identified by merging images of the green (phalloidin labeling RPE) and the red (isolectin IB4 labeling CNV) channels. CNV complexes were identified using the red channel (isolectin), and their areas were quantified using the FluoView software (Version 1.7a).
Average FA scores and areas of CNV complexes in each group were presented as mean±SEM, unless otherwise indicated. They were analyzed using a one-way ANOVA followed by a Tukey-Kramer test after Box-Cox transformations. All statistics were performed utilizing the statistical analysis software JMP (SAS Institute, Cary, N.C.). p values ≦0.05 were considered statistically significant.

[3] = system: human retinal endothelial cells (HREC); assay: PMA-induced HREC network formation in fibrin gel; format: cell-based; conditions: PMA 25 ng/mL, vs PMA control
Experimental: Prior to the start of the experiment, HREC from Cell Systems were cultured in flask in CS-C complete medium. The tube formation assay was performed in a 96-well plate pre-coated with fibrin gel. HREC were collected from flasks and re-suspended 1% FBS EBM-2 medium. Cells were pre-incubated with the integrin antagonists, echistatin or vehicle control for 30 min before loading onto the fibrin gel. Images were taken at 9 h.
Thrombin solution and fibrinogen solutions were allowed to thaw at room temperature and 37° C. water bath, respectively. Fibrinogen solution at 30 μL was added into the desired number of wells in a 96-well plate. Plate was gently shaken to ensure uniform coverage of fibrinogen solution in the well. Thrombin at 20 μL was added into each well. The plate was gently shaken immediately to ensure the thrombin was mixed well with fibrinogen. The plate was placed at 37° C. overnight to allow the fibrin gel to polymerize.
HREC were trypsinized at about 80% confluence and counted by standard hemocytometer methods. After deactivating trypsin with 5 mL of 10% FBS EBM-2 medium, the cells were centrifuged (800 rpm, 8 min) and re-suspended at 2×10^5 cells/mL in 1% FBS EBM-2 medium
Cells were pre-incubated with integrin compounds or echistatin at 37° C., 5% CO2, and 95% humidity for 30 minutes before mixing with PMA medium. The final concentrations of all agents are shown in the design table. The 100 μL of the cell mixture was added onto the gel and cells were cultured at 37° C., 5% CO2, and 95% humidity. Images were taken at different time points.
The network formation scoring system (a five point-scale)
Each well in one group was given a score and then averaged. Data were expressed as mean±SEM of network formation scores. Statistical analysis was performed using a one-way ANOVA-Dunnett's test in raw data, and p<0.05 was considered statistically significant. Data analysis was performed using statistical analysis software JMP (SAS Institute, Cary, N.C.).

[4] = study II, compound 1 nM, Lucentis 1 ng/mL

| Compound | Combination effect with Lucentis on VEGF-induced HREC proliferation (synergistic/additive) [1, 4] | CNV area / development of CNV on isolectin IB4-labeled flat mounts compared to vehicle-treated controls [2] | Mean score of fluorescein leakage (FA score) compared to vehicle-treated controls [2] | Number of lesions in FA grade 1 [2] | Number of lesions in FA grade 2 [2] | Number of lesions in FA grade 3 [2] | Number of lesions in FA grade 4 [2] | Inhibition of PMA-induced HREC network formation in fibrin gel ([3]; 1 nM) | Inhibition of PMA-induced HREC network formation in fibrin gel ([3]; 10 nM) | HREC proliferation without VEGF ([1]; basal and Lucentis-treatment conditions, Lucentis 1 ng/mL, BOL-303055-X 0.1-10 nM, other compounds 1 nM) | Inhibiting effect on VEGF-induced HREC proliferation in the presence of Lucentis versus without ([1]; study I, 0.1, 0.3, 1, 3 and 10 nM, Lucentis 1 ng/mL) | Inhibition of VEGF-induced HREC proliferation, compound alone ([1]; study I, 0.1-10 nM, VEGF 10 ng/mL) | Combination effect with Lucentis on VEGF-induced HREC proliferation (synergistic/additive) ([1]; study I, compound 0.1 nM, Lucentis 1 ng/mL) | Combination effect with Lucentis on VEGF-induced HREC proliferation (synergistic/additive) ([1]; study I, compound 0.3 nM, Lucentis 1 ng/mL) | Combination effect with Lucentis on VEGF-induced HREC proliferation (synergistic/additive) ([1]; study I, compound 1, 3 and 10 nM, Lucentis 1 ng/mL) |
| --- | --- | --- | --- | --- | --- | --- | --- | --- | --- | --- | --- | --- | --- | --- | --- |
| COc1ccc(S(=O)(=O)N[C@@H](CNc2nc(C)nc(N3CCC(c4ccc5c(n4)NCCC5)CC3)c2C)C(=O)O)cc1 [BOL-303050-X] | additive effects | completely inhibited in a small portion of lesions; also recorded: smaller area of CNV | smaller means | 6 | 12 | 4 | 2 | significantly inhibited | significantly inhibited | – | – | – | – | – | – |
| CCc1nc(NC[C@H](NC(=O)OCc2ccccc2)C(=O)O)c(C)c(N2CCC(c3ccc4c(n3)NCCC4)CC2)n1 [BOL-303055-X] | additive effects | smaller area of CNV | smaller means | 0 | 3 | 2 | 1 | – | significantly inhibited | reduced HREC proliferation in a statistically significant and dose-dependent manner | significantly greater inhibiting effect | inhibited VEGF-induced HREC proliferation in a dose-dependent manner | synergistic effects | additive | additive |
| bevacizumab [Avastin, reference compound] | – | did not inhibit the development of CNV | smaller means | – | 7 | – | 15 | – | – | – | – | – | – | – | – |
| COc1c(NC[C@H](NC(=O)OCc2ccccc2)C(=O)O)ncnc1N1CCC(c2ccc3c(n2)NCCC3)CC1 [BOL-303054-X] | additive effects | – | – | 0 | 0 | 5 | 1 | not statistically significant | not statistically significant | – | – | – | – | – | – |
